Patent US11161845B2, “Pyrrolopyridine-aniline compounds for treatment of dermal disorders” (Nflection Therapeutics, Inc., priority 2017, dated 2021)
pIC50: −log10 of the molar value.

How the values were obtained:
[1] = S9 stability assay, human liver S9 fraction; type: in vitro ADME; conditions: for CLint: known MEK compounds; for microsomal CLint at 1 μM / half-life at 1 μM: pH 7.4, Table 1, human liver S9 fraction; for microsomal CLint at 1 μM: read-out: CLint; for half-life at 1 μM: read-out: Liver S9 t1/2
Procedure: Compounds were assessed for metabolic stability in human skin by assessing their rate of disappearance from human S9 skin fraction. Similarly, compounds were assessed for metabolic stability in human liver by assessing their rate of disappearance from human S9 liver fraction. The protocol below can be used to assess the difference between skin and hepatic metabolism.
The assay was carried out in 96-well microtiter plates at 37° C. Reaction mixtures (25 μL) contained a final concentration of 1 μM test compound, 2 mg/mL liver or skin S9 protein, and 1 mM NADPH in buffer (100 mM potassium phosphate, pH 7.4 buffer with 1 mM EDTA, 3 mM MgCl2). At each of the time points (0, 15, 30, and 60 minutes), 150 μL of quench solution (100% acetonitrile with 0.1% formic acid) with internal standard was transferred to each well. Besides the zero minute controls, mixtures containing the same components except the NADPH were also prepared as the negative control. Verapamil or testosterone was included as a positive control to verify assay performance. Plates were sealed and centrifuged at 4° C. for 15 minutes at 4000 rpm. The supernatant was transferred to fresh plates for LC/MS/MS analysis.
All samples were analyzed on LC/MS/MS using an AB Sciex API 4000 instrument, coupled to a Shimadzu LC-20AD LC Pump system. Analytical samples were separated using a Waters Atlantis T3 dC18 reverse phase HPLC column (20 mm×2.1 mm) at a flow rate of 0.5 mL/min. The mobile phase consisted of 0.1% formic acid in water (solvent A) and 0.1% formic acid in 100% acetonitrile (solvent B).
The extent of metabolism was calculated as the disappearance of the test compound, compared to the 0-min control reaction incubations. Initial rates were calculated for the compound concentration and used to determine t1/2 values and subsequently, the intrinsic clearance, CLint=(0.693) (1/t1/2 (min)) (mL incubation/mg of S9 protein).

[2] = target: T1, hERG channel protein (Homo sapiens, UniProt Q12809); test: hERG screening assay (Predictor hERG FP); type: binding; conditions: fluorescence polarization tracer displacement
T1 construct: purchased ThermoFisher PV5365
T1 sequence (Q12809 whole entry): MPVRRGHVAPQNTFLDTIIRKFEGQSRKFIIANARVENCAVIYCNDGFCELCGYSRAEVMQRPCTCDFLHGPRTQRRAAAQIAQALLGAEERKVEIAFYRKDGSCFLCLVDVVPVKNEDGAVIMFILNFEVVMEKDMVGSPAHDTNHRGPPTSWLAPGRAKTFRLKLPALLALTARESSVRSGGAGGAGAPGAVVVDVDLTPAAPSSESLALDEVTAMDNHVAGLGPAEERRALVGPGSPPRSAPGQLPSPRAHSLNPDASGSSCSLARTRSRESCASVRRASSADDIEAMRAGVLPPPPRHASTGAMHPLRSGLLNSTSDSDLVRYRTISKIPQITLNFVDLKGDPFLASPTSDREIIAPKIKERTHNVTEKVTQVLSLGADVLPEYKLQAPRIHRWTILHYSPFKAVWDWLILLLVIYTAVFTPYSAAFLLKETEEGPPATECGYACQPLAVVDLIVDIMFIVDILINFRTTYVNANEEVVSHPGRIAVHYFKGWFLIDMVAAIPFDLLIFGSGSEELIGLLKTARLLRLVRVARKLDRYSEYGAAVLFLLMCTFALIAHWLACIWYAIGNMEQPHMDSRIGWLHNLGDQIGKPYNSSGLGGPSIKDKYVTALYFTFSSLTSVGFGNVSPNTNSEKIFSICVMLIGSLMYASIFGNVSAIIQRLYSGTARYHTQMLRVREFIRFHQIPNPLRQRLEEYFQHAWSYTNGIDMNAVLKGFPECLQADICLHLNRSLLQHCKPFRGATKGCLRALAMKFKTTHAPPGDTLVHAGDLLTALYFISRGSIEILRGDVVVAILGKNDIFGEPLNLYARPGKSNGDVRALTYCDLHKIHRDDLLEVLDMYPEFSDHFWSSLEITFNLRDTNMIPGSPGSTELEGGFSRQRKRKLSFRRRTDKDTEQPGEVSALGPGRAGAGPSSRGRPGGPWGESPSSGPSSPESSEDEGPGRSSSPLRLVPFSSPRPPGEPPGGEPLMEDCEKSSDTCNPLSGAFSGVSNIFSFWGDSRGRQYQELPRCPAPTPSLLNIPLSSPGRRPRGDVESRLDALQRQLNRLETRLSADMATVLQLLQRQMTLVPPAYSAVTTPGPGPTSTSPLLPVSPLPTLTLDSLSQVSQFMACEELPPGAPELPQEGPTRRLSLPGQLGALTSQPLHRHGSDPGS
Procedure: hERG screening was conducted using a procedure similar to the procedure described by Piper et al. (Piper, D. R. et al., Assay Drug Dev. Technol. 2008, 6(2):213-223). The Predictor hERG FP assay (available from ThermoFisher, cat. no. PV5365) is a homogenous, fluorescence polarization biochemical-based format utilizing a membrane fraction containing hERG channel protein (Predictor hERG Membrane) and a high affinity, red-fluorescent hERG channel ligand (Predictor hERG Tracer Red). When the Predictor hERG Tracer ligand is bound to the hERG channel it produces high fluorescence polarization values. Compounds that bind to the hERG channel protein (competitors) displace the Predictor hERG Tracer Red resulting in decreased fluorescence polarization values.
Test compounds were solubilized in DMSO at 100× (or greater) of the desired starting concentration. Screening was conducted with a final concentration of 1% DMSO. For 10-point titrations, 3-fold serial dilutions were performed from the starting concentrations. The assay buffer used was 25 mM HEPES (pH 7.5), 15 mM KCl, 1 mM MgCl2, and 0.05% Pluronic F-127 (available from Sigma-Aldrich).
Predictor hERG membranes were stored as a 2× stock at −80° C. Each membrane lot was titrated to identify the concentration of membranes required to obtain ˜70% bound tracer. Before setting up the assay the membranes were thawed in a 37° C. water bath and stored at room temperature. To avoid light scatter caused by large membrane particulates the membranes were sonicated until a homogeneous solution free of particulates is obtained. […]
384 well untreated low-volume polystyrene microplates (Corning Cat. #4511) were used for the assay. […] The assay plate was read on a fluorescence plate reader (Tecan Safire^2) and the data was analyzed. […]
Assay blank control wells consisted of Predictor hERG Membranes and Assay Buffer. The blank wells were used for background subtraction of raw parallel and perpendicular fluorescence values prior to the calculation of polarization values. […]

[3] = system: MDCK-MDR1 cells; test: in vitro; conditions: dog, MDCK-MDR1, 1 h, 5 μM
Procedure: (§1) MDCK-MDR1 is a stable-transfected cell line originating from MDCK cells, with over-expression of human MDR1 gene. The cell line is widely used for the identification and characterization of P-gp substrates and inhibitors.
(§2) MDCK-MDR1 cells were plated into 96-well Millipore Millicell-96 plates at 7,500 cells/75 μL/well and incubated for three days at 37° C. with 5% CO2. Cells were washed with Hank's Balanced Salt Solution (HBSS) with 5 mM HEPES for 30 minutes before starting the experiment. Test compound solutions were prepared by diluting DMSO stock into HBSS buffer, resulting in a final DMSO concentration of 0.1%. Prior to the experiment, cell monolayer integrity was verified by […] electrical resistance (TEER). Transport experiment was initiated by adding test compounds to the apical (75 μL) or basal (250 μL) side. Transport plates were incubated at 37° C. in a humidified incubator with 5% CO2. Samples were taken from the donor and acceptor compartments after one hour and analyzed by liquid chromatography with tandem mass spectrometry (LC/MS/MS).
(§3) Digoxin was used as reference control.
(§4) Apparent permeability (Papp) values were calculated using the following equation: Papp=(dQ/dt)/A/Co; where dQ/dt is the initial rate of amount of test compound transported across cell monolayer, A is the surface area of the filter membrane, and Co is the initial concentration of the test compound, calculated for each direction using a 4-point calibration curve by LC/MS/MS.
(§5) Net flux ratio between the two directional transports was calculated by the following equation: Ratio=Papp, B-A/Papp, A-B; where Papp, B-A and Papp, A-B represent the apparent permeability of test compound from the basal-to-apical and apical-to-basal side of the cellular monolayer, respectively.
(§6) Recovery was calculated based on the compound concentration at the end of the experiment, compared to that at the beginning of the experiment, adjusted for volumes.
(§7) A net flux ratio greater than two was considered a positive result for substrate determination. […] If the addition of a known P-gp inhibitor to the experiment reduces the net flux ratio by a significant amount (more than 50% reduction or reduces the ratio to close to unity), it is likely that the compound tested is a P-gp substrate.

[4] = system: P-gp (human MDR1); test: in vitro; conditions: dog; for Papp A→B at 1 h, 5 μM / Papp B→A at 1 h, 5 μM: MDCK-MDR1, Papp
Procedure: as §1, §2, §3, §4, §5, §6, §7

[5] = clinically tested; cited from earlier work

Row | CLint [1] | microsomal CLint at 1 μM [1] | half-life at 1 μM [1] | Papp, A-B Value [3] | Papp, B-A Value [3] | Recover Rate [3] | efflux ratio at 1 h, 5 μM ([4]; MDCK-MDR1) | Papp A→B at 1 h, 5 μM ([4]; A-B Mean) | Papp A→B at 1 h, 5 μM ([4]; A-B Value) | Papp B→A at 1 h, 5 μM ([4]; B-A Mean) | Papp B→A at 1 h, 5 μM ([4]; B-A Value) | Compound | pIC50 [2] | side effects [5]
1 | 5.27 μL/min/mg protein | 5.27 µL/min/mg | 66 min | 1.29e-05 cm/s | 4.37e-05 cm/s | 99% | 3.4 | 12.8 ×10⁻⁶ cm/s | 12.7 ×10⁻⁶ cm/s | 43.5 ×10⁻⁶ cm/s | 43.2 ×10⁻⁶ cm/s | Cn1c(C(=O)NOCCO)c(Nc2ccc(I)cc2F)c2cnccc21 [Example C8] | 5.74 | 
2 | 2.20 μL/min/mg protein | 2.2 µL/min/mg | 158 min |  |  |  |  |  |  |  |  | O=C(NOC[C@H](O)CO)c1c(Nc2ccc(I)cc2F)sc2ncccc12 [Example C9] | 5.14 | 
3 |  |  |  |  |  |  |  |  |  |  |  | O=C(NOC[C@H](O)CO)c1ccc(F)c(F)c1Nc1ccc(I)cc1F [PD0325901] |  | neurological side effects associated with ataxia, confusion, and syncope
